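Five concentrations, 48 hours, 96-well plates. GI50 is the concentration that inhibits growth by half. The concentration for full growth arrest is given as TGI.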
Experiments:
Test in all cases: NCI tumour cell line growth inhibition, 48 h
OVCAR-5 ovarian = tested on: OVCAR-5 ovarian
SF-268 CNS = tested on: SF-268 CNS
UACC-257 melanoma = tested on: UACC-257 melanoma
MDA-MB-231 breast = tested on: MDA-MB-231 breast
T-47D breast = tested on: T-47D breast
M14 melanoma = tested on: M14 melanoma
SF-539 CNS = tested on: SF-539 CNS
COLO 205 colon = tested on: COLO 205 colon
KM12 colon = tested on: KM12 colon
SK-MEL-5 melanoma = tested on: SK-MEL-5 melanoma
HT29 colon = tested on: HT29 colon
DU-145 prostate = tested on: DU-145 prostate
NCI-H522 lung = tested on: NCI-H522 lung
OVCAR-8 ovarian = tested on: OVCAR-8 ovarian
SK-MEL-28 melanoma = tested on: SK-MEL-28 melanoma
U251 CNS = tested on: U251 CNS
HL-60(TB) leukemia = tested on: HL-60(TB) leukemia
HS 578T breast = tested on: HS 578T breast
SW-620 colon = tested on: SW-620 colon
HOP-92 NSCLC = tested on: HOP-92 NSCLC
NCI/ADR-RES ovarian = tested on: NCI/ADR-RES ovarian
SNB-75 CNS = tested on: SNB-75 CNS
UO-31 renal = tested on: UO-31 renal
CAKI-1 renal = tested on: CAKI-1 renal
HOP-62 NSCLC = tested on: HOP-62 NSCLC
PC-3 prostate = tested on: PC-3 prostate
SK-MEL-2 melanoma = tested on: SK-MEL-2 melanoma
A549 NSCLC = tested on: A549 NSCLC

## c1n[nH]cc1-c1nc2ccc3[nH]ncc3c2c2c1CCCC2
OVCAR-5 ovarian
  GI50: 2710 nM
  TGI: 17900 nM
SF-268 CNS
  GI50: 1950 nM
  TGI: 4630 nM
UACC-257 melanoma
  GI50: 1860 nM
  TGI: 6640 nM
MDA-MB-231 breast
  GI50: 1960 nM
  TGI: 12000 nM
T-47D breast
  GI50: 2210 nM
  TGI: 8180 nM
M14 melanoma
  GI50: 1110 nM
  TGI: 3360 nM
SF-539 CNS
  GI50: 1380 nM
  TGI: 3090 nM
COLO 205 colon
  GI50: 1310 nM
  TGI: 4470 nM
KM12 colon
  GI50: 2910 nM
  TGI: 8900 nM
SK-MEL-5 melanoma
  GI50: 1280 nM
  TGI: 3220 nM
HT29 colon
  GI50: 1670 nM
  TGI: 10900 nM
DU-145 prostate
  GI50: 1710 nM
  TGI: 11600 nM
NCI-H522 lung
  GI50: 835 nM
  TGI: 2770 nM
OVCAR-8 ovarian
  GI50: 1640 nM
  TGI: 4380 nM
SK-MEL-28 melanoma
  GI50: 1590 nM
  TGI: 4510 nM
U251 CNS
  GI50: 2060 nM
  TGI: 12100 nM
HL-60(TB) leukemia
  GI50: 1490 nM
  TGI: 5590 nM
HS 578T breast
  GI50: 914 nM
  TGI: 4020 nM
SW-620 colon
  GI50: 924 nM
  TGI: 6540 nM
HOP-92 NSCLC
  GI50: 2240 nM
  TGI: 6310 nM
NCI/ADR-RES ovarian
  GI50: 2100 nM
  TGI: 6050 nM
SNB-75 CNS
  GI50: 1310 nM
  TGI: 2880 nM
UO-31 renal
  GI50: 1540 nM
  TGI: 7650 nM
CAKI-1 renal
  GI50: 511 nM
  TGI: 10400 nM
HOP-62 NSCLC
  GI50: 1750 nM
  TGI: 7680 nM
PC-3 prostate
  GI50: 2370 nM
  TGI: 11600 nM
SK-MEL-2 melanoma
  GI50: 1260 nM
  TGI: 3120 nM
A549 NSCLC
  GI50: 2010 nM
  TGI: 12300 nM
